Measurements from patent EP0049801B1, “Sucrose-mutase, immobilized sucrose-mutase and use of this immobilized sucrose-mutase for the production of isomaltulose(6-O-alpha-D-glucopyranosido-D fructose)” (BAYER AG, priority 1980, dated 1982).

Test system: Saccharose-Mutase
Assay: Influence of ions on the enzymatic reaction
Assay type: biochemical, Protaminobacter rubrum
Procedure: Das freie Enzym wird bei Temperaturen > 40 °C rasch inaktiviert. Die Reaktion wird durch CU- + Zn-Ionen stark gehemmt.

| Einfluß auf die enzymatische Aktivität | SMILES |
| --- | --- |
| keinen Einfluß | OB(O)O [Borat] |
| stark gehemmt | [Cu+2] [CU] |
